Source: patent US20230312577A1, “DUAL KINASE-BROMODOMAIN INHIBITORS” (MONASH UNIVERSITY, priority 2020, published 2023)

These compounds were tested on OPM2 cells (assay: Cell proliferation assay (ViaLight, cellular ATP)). Settings: Homo sapiens, OPM-2, 120 h, 5 days, 5 μM to 1 nM.
Assay type: cell-based
Method: OPM2 cells (1×10^3) were plated in a 96 well plate. Test compounds were added to cells at final concentrations ranging from 5 μM to 1 nM. They were incubated for 5 days before they were analysed using ViaLight luminescence-based proliferation assays which detect cellular ATP, as per the manufacturer's instructions. All samples were prepared in technical triplicates. Data analysis was performed in GraphPad Prism version 7.00 for Mac OS X, (GraphPad Software, San Diego California USA) in order to calculate the GI50.
With `CC(=O)N1c2ccc(-c3cccc(CNC(=O)c4cn5cc(-c6cnc(N)nc6)nc(N6CCOCC6)c5n4)c3)cc2CC[C@@H]1C` [Cpd 011, (S)-N-(3-(1-acetyl-2-methyl-1,2,3,4-tetrahydroquinolin-6-yl)benzyl)-6-(2-aminopyrimidin-5-yl)-8-morpholinoimidazo[1,2-a]pyrazine-2-carboxamide] the GI50 was 100 to 500 nM.
In the case of `CC(=O)N1c2ccc(-c3ccc(C(=O)NCCNC(=O)c4cn5cc(-c6cnc(N)nc6)nc(N6CCOCC6)c5n4)cc3)cc2CC[C@@H]1C` [Cpd 012, (S)-N-(2-(4-(1-Acetyl-2-methyl-1,2,3,4-tetrahydroquinolin-6-yl)benzamido)ethyl)-6-(2-aminopyrimidin-5-yl)-8-morpholinoimidazo[1,2-a]pyrazine-2-carboxamide], the GI50 is reported as at most 100 nM.
With `CC(=O)N1c2ccc(-c3ccc(C(=O)N4CCN(Cc5cn6cc(-c7cnc(N)nc7)nc(N7CCOCC7)c6n5)CC4)cc3)cc2CC[C@@H]1C` [Cpd 014, (S)-1-(6-(4-(4-((6-(2-Aminopyrimidin-5-yl)-8-morpholinoimidazo[1,2-a]pyrazin-2-yl)methyl)piperazine-1-carbonyl)phenyl)-2-methyl-3,4-dihydroquinolin-1(2H)-yl)ethan-1-one] the GI50 was 100 to 500 nM.
`CC(=O)N1c2ccc(-c3ccc(CN4CCN(Cc5cn6cc(-c7cnc(N)nc7)nc(N7CCOCC7)c6n5)CC4)cc3)cc2CC[C@@H]1C` [Cpd 015, (S)-1-(6-(4-((4-((6-(2-Aminopyrimidin-5-yl)-8-morpholinoimidazo[1,2-a]pyrazin-2-yl)methyl)piperazin-1-yl)methyl)phenyl)-2-methyl-3,4-dihydroquinolin-1(2H)-yl)ethan-1-one] was tested, and the GI50 was 100 to 500 nM.
Work on `CC(=O)N1c2ccc(-c3ccc(C(=O)NCc4cn5cc(-c6cnc(N)nc6)nc(N6CCOCC6)c5n4)cc3)cc2CC[C@@H]1C` [Cpd 016, (S)-4-(1-Acetyl-2-methyl-1,2,3,4-tetrahydroquinolin-6-yl)-N-((6-(2-aminopyrimidin-5-yl)-8-morpholinoimidazo[1,2-a]pyrazin-2-yl)methyl)benzamide] yielded a GI50 of 100 to 500 nM.
For `CC(=O)N1c2ccc(-c3cccc(C(=O)NCc4cn5cc(-c6cnc(N)nc6)nc(N6CCOCC6)c5n4)c3)cc2CC[C@@H]1C` [Cpd 017, (S)-3-(1-Acetyl-2-methyl-1,2,3,4-tetrahydroquinolin-6-yl)-N-((6-(2-aminopyrimidin-5-yl)-8-morpholinoimidazo[1,2-a]pyrazin-2-yl)methyl)benzamide], the GI50 was 100 to 500 nM.
`CC(=O)N1c2ccc(-c3ccc(CC(=O)NCc4cn5cc(-c6cnc(N)nc6)nc(N6CCOCC6)c5n4)cc3)cc2CC[C@@H]1C` [Cpd 018, (S)-2-(4-(1-Acetyl-2-methyl-1,2,3,4-tetrahydroquinolin-6-yl)phenyl)-N-((6-(2-aminopy-rimidin-5-yl)-8-morpholinoimidazo[1,2-a]pyrazin-2-yl)methyl)acetamide] showed a GI50 of 100 to 500 nM.
Work on `CC(=O)N1c2ccc(-c3cccc(CC(=O)NCc4cn5cc(-c6cnc(N)nc6)nc(N6CCOCC6)c5n4)c3)cc2CC[C@@H]1C` [Cpd 019, (S)-2-(3-(1-Acetyl-2-methyl-1,2,3,4-tetrahydroquinolin-6-yl)phenyl)-N-((6-(2-aminopy-rimidin-5-yl)-8-morpholinoimidazo[1,2-a]pyrazin-2-yl)methyl)acetamide] yielded a GI50 of 100 to 500 nM.
Compound `CC(=O)N1c2ccc(-c3ccc(NC(=O)Cc4cn5cc(-c6cnc(N)nc6)nc(N6CCOCC6)c5n4)cc3)cc2CC[C@@H]1C` [Cpd 022, (S)-N-(4-(1-acetyl-2-methyl-1,2,3,4-tetrahydroquinolin-6-yl)phenyl)-2-(6-(2-aminopyrimidin-5-yl)-8-morpholinoimidazo[1,2-a]pyrazin-2-yl)acetamide] has a GI50 of at most 100 nM.
In the case of `CC(=O)N1c2ccc(-c3cccc(NC(=O)Cc4cn5cc(-c6cnc(N)nc6)nc(N6CCOCC6)c5n4)c3)cc2CC[C@@H]1C` [Cpd 023, (S)-N-(3-(1-acetyl-2-methyl-1,2,3,4-tetrahydroquinolin-6-yl)phenyl)-2-(6-(2-aminopyrimidin-5-yl)-8-morpholinoimidazo[1,2-a]pyrazin-2-yl)acetamide], the GI50 is reported as 100 to 500 nM.
`CC(=O)N1c2ccc(-c3ccc(CNC(=O)Cc4cn5cc(-c6cnc(N)nc6)nc(N6CCOCC6)c5n4)cc3)cc2CC[C@@H]1C` [Cpd 024, (S)-N-(4-(1-acetyl-2-methyl-1,2,3,4-tetrahydroquinolin-6-yl)benzyl)-2-(6-(2-aminopyrimidin-5-yl)-8-morpholinoimidazo[1,2-a]pyrazin-2-yl)acetamide] showed a GI50 of over 500 nM.
Work on `CC(=O)N1c2ccc(-c3cccc(CNC(=O)Cc4cn5cc(-c6cnc(N)nc6)nc(N6CCOCC6)c5n4)c3)cc2CC[C@@H]1C` [Cpd 025, (S)-N-(3-(1-acetyl-2-methyl-1,2,3,4-tetrahydroquinolin-6-yl)benzyl)-2-(6-(2-aminopyrimidin-5-yl)-8-morpholinoimidazo[1,2-a]pyrazin-2-yl)acetamide] yielded a GI50 of 100 to 500 nM.
Compound `CC(=O)N1c2ccc(-c3ccc(C(=O)N(C)CCN(C)C(=O)c4cn5cc(-c6cnc(N)nc6)nc(N6CCOCC6)c5n4)cc3)cc2CC[C@@H]1C` [Cpd 036, (S)-N-(2-(4-(1-Acetyl-2-methyl-1,2,3,4-tetrahydroquinolin-6-yl)-N-methylbenzamido)ethyl)-6-(2-aminopyrimidin-5-yl)-N-methyl-8-morpholinoimidazo[1,2-a]pyrazine-2-carboxamide] has a GI50 of over 500 nM.
Compound `CC(=O)N1c2ccc(-c3ccc(CN(C)C(=O)c4cn5cc(-c6cnc(N)nc6)nc(N6CCOCC6)c5n4)cc3)cc2CC[C@@H]1C` [Cpd 037, (S)-N-(4-(1-acetyl-2-methyl-1,2,3,4-tetrahydroquinolin-6-yl)benzyl)-6-(2-aminopyrimidin-5-yl)-N-methyl-8-morpholinoimidazo[1,2-a]pyrazine-2-carboxamide] has a GI50 of 100 to 500 nM.
In the case of `CC(=O)N1c2ccc(-c3ccc(CN(C)C(=O)c4cc5nc(-c6cnc(N)nc6)nc(N6CCOCC6)c5s4)cc3)cc2CC[C@@H]1C` [Cpd 038, (S)-N-(4-(1-acetyl-2-methyl-1,2,3,4-tetrahydroquinolin-6-yl)benzyl)-2-(2-aminopyrimidin-5-yl)-N-methyl-4-morpholinothieno[3,2-d]pyrimidine-6-carboxamide], the GI50 is reported as over 500 nM.
`CC(=O)N1c2ccc(-c3ccc(CN(C)C(=O)c4sc5c(N6CCOCC6)nc(-c6cnc(N)nc6)nc5c4C)cc3)cc2CC[C@@H]1C` [Cpd 039, (S)-N-(4-(1-acetyl-2-methyl-1,2,3,4-tetrahydroquinolin-6-yl)benzyl)-2-(2-aminopyrimidin-5-yl)-N,7-dimethyl-4-morpholinothieno[3,2-d]pyrimidine-6-carboxamide] was tested, and the GI50 was over 500 nM.
Compound `CC(=O)N1c2ccc(-c3ccc(C(=O)NCCCNC(=O)c4cc5nc(-c6cnc(N)nc6)nc(N6CCOCC6)c5s4)cc3)cc2CC[C@@H]1C` [Cpd 040, (S)-N-(3-(4-(1-Acetyl-2-methyl-1,2,3,4-tetrahydroquinolin-6-yl)benzamido)propyl)-2-(2-aminopyrimidin-5-yl)-4-morpholinothieno[3,2-d]pyrimidine-6-carboxamide] has a GI50 of over 500 nM.
Work on `CC(=O)N1c2ccc(-c3ccc(C(=O)NCCCNC(=O)c4sc5c(N6CCOCC6)nc(-c6cnc(N)nc6)nc5c4C)cc3)cc2CC[C@@H]1C` [Cpd 041, (S)-N-(3-(4-(1-Acetyl-2-methyl-1,2,3,4-tetrahydroquinolin-6-yl)benzamido)propyl)-2-(2-aminopyrimidin-5-yl)-7-methyl-4-morpholinothieno[3,2-d]pyrimidine-6-carboxamide] yielded a GI50 of over 500 nM.
Compound `CC(=O)N1c2ccc(-c3ccc(CN(C)Cc4cc5nc(-c6cnc(N)nc6)nc(N6CCOCC6)c5s4)cc3)cc2CC[C@@H]1C` [Cpd 042, (S)-1-(6-(4-((((2-(2-Aminopyrimidin-5-yl)-4-morpholinothieno[3,2-d]pyrimidin-6-yl)methyl)(methyl)amino)methyl)phenyl)-2-methyl-3,4-dihydroquinolin-1(2H)-yl)ethan-1-one] has a GI50 of over 500 nM.
For `CC(=O)N1c2ccc(-c3ccc(CN(C)Cc4sc5c(N6CCOCC6)nc(-c6cnc(N)nc6)nc5c4C)cc3)cc2CC[C@@H]1C` [Cpd 043, (S)-1-(6-(4-((((2-(2-aminopyrimidin-5-yl)-7-methyl-4-morpholinothieno[3,2-d]pyrimidin-6-yl)methyl)(methyl)amino)methyl)phenyl)-2-methyl-3,4-dihydroquinolin-1(2H)-yl)ethan-1-one], the GI50 was over 500 nM.
`CC(=O)N1c2ccc(-c3ccc(CCNC(=O)c4cn5cc(-c6cnc(N)nc6)nc(N6CCOCC6)c5n4)cc3)cc2CC[C@@H]1C` [Cpd 044, (S)-N-(4-(1-acetyl-2-methyl-1,2,3,4-tetrahydroquinolin-6-yl)phenethyl)-6-(2-aminopyrimidin-5-yl)-8-morpholinoimidazo[1,2-a]pyrazine-2-carboxamide] gave a GI50 of 100 to 500 nM.
For `CC(=O)N1c2ccc(-c3ccc(CCNC(=O)c4cc5nc(-c6cnc(N)nc6)nc(N6CCOCC6)c5s4)cc3)cc2CC[C@@H]1C` [Cpd 045, (S)-N-(4-(1-acetyl-2-methyl-1,2,3,4-tetrahydroquinolin-6-yl)phenethyl)-2-(2-aminopyrimidin-5-yl)-4-morpholinothieno[3,2-d]pyrimidine-6-carboxamide], the GI50 was at most 100 nM.
With `CC(=O)N1c2ccc(-c3ccc(CCNC(=O)c4sc5c(N6CCOCC6)nc(-c6cnc(N)nc6)nc5c4C)cc3)cc2CC[C@@H]1C` [Cpd 046, (S)-N-(4-(1-acetyl-2-methyl-1,2,3,4-tetrahydroquinolin-6-yl)phenethyl)-2-(2-aminopyrimidin-5-yl)-7-methyl-4-morpholinothieno[3,2-d]pyrimidine-6-carboxamide] the GI50 was 100 to 500 nM.
For `CC(=O)N1c2ccc(-c3ccc(NC(=O)CNC(=O)c4sc5c(N6CCOCC6)nc(-c6cnc(N)nc6)nc5c4C)cc3)cc2CC[C@@H]1C` [Cpd 047, (S)-N-(2-((4-(1-acetyl-2-methyl-1,2,3,4-tetrahydroquinolin-6-yl)phenyl)amino)-2-oxoethyl)-2-(2-aminopyrimidin-5-yl)-7-methyl-4-morpholinothieno[3,2-d]pyrimidine-6-carboxamide], the GI50 was over 500 nM.
